Tests used:
[1] = molecular target: T1, ALK (Homo sapiens, UniProt Q9UM73); assay: ALK Kinase Assay (ELISA/TRF, PLC-γ substrate); assay type: biochemical; conditions: ALK kinase inhibition, 1 μM ATP; read-out: ALK Potency
T1 construct: host or cells: baculovirus expression system
Summary of the method: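 Read-out is time-resolved fluorescence from a Eu-N1-labeled PT66 antibody that binds phosphorylated PLC-γ, the substrate coated at 10 μg/mL in TBS. ALK at 30 ng/ml starts the reaction, which runs 15 minutes at 37° C.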

[2] = molecular target: T2, JAK2 (Homo sapiens, UniProt O60674); assay: Recombinant Human JAK2 Kinase Assay (TRF); assay type: biochemical; conditions: JAK2 kinase inhibition, 0.2 μM ATP; read-out: JAK2 Potency
T2 construct: host or cells: baculovirus expression system
Summary of the method: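 Baculovirus-expressed JAK2 (15 ng/ml) phosphorylated a biotinylated 15-mer peptide captured on Neutravidin, in 20 mM HEPES pH 7.2, 0.2 μM ATP, 1 mM MnCl2, 0.1% BSA, 2.5% DMSO final, 20 min at room temperature. Phosphoproduct detected by time-resolved fluorescence with Eu-N1-labelled PY100 antibody.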

T2 sequence (O60674 whole entry): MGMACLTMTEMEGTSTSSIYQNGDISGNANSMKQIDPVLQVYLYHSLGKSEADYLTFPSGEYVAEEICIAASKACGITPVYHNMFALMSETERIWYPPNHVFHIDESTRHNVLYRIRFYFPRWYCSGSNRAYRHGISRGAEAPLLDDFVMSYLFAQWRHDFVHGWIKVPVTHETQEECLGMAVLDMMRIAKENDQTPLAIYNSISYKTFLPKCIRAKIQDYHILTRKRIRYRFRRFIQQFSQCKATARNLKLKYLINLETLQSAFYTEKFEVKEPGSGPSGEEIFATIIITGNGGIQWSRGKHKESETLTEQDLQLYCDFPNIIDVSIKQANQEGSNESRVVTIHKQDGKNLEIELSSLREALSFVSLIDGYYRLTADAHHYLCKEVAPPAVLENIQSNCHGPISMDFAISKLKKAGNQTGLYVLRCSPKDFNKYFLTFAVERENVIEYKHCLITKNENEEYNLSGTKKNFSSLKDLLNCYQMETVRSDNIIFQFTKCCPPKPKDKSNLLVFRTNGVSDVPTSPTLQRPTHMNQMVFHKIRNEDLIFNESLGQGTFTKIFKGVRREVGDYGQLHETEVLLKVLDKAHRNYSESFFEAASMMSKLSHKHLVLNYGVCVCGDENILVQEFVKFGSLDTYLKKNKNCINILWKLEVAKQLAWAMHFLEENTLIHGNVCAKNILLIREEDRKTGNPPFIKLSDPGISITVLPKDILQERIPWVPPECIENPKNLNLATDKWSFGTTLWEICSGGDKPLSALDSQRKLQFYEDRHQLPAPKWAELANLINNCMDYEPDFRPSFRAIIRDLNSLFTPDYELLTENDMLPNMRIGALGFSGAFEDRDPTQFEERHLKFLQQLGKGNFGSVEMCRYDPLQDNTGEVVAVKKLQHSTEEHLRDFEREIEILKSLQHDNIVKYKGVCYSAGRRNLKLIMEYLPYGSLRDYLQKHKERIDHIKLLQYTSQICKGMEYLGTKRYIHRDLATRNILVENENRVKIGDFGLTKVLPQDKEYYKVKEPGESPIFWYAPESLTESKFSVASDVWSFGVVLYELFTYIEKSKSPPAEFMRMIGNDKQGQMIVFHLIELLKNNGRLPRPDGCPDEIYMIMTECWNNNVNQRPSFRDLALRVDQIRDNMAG
T1 sequence (Q9UM73 19-1620): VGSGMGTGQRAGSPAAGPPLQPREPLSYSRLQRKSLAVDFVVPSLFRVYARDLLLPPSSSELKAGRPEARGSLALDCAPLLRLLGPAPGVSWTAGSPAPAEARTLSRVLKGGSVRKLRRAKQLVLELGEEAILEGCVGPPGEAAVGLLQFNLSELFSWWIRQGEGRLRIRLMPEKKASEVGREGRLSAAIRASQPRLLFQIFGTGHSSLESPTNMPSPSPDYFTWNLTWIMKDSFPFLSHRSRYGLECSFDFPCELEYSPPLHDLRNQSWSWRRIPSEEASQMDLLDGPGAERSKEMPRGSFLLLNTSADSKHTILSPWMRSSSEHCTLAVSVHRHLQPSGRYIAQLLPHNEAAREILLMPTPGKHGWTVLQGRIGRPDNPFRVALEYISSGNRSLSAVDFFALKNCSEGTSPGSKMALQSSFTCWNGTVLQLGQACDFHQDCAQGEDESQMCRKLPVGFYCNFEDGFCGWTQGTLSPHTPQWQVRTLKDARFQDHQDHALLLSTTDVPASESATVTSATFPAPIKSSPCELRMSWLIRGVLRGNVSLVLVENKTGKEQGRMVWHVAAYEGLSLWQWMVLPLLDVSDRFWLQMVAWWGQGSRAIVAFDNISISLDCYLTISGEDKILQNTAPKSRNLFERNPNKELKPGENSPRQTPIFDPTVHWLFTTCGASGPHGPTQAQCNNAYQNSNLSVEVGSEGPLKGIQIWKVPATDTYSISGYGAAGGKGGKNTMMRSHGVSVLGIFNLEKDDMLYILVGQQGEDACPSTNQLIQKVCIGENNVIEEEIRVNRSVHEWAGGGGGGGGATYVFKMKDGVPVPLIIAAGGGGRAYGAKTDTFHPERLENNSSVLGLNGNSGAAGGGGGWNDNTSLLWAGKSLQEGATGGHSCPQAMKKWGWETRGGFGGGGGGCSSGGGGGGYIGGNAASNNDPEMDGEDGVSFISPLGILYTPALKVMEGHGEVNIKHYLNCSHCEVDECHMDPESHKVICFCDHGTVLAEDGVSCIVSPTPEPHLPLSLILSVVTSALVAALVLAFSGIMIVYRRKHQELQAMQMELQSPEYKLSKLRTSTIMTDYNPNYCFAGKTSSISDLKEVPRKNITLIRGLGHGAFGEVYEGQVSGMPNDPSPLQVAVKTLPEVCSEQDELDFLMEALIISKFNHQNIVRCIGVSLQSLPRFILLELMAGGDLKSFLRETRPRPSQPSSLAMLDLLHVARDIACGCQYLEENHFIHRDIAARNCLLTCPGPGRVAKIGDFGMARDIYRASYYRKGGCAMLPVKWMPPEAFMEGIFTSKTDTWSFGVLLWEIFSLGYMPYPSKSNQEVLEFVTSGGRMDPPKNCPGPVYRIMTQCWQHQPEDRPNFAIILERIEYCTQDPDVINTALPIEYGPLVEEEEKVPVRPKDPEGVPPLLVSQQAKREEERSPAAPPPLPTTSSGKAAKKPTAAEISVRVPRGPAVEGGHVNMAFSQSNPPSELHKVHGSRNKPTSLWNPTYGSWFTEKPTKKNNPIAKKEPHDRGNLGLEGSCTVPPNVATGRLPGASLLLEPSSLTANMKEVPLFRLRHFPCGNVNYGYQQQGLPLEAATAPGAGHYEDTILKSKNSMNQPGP

Row | Compound | IC50 [1] [nM] | IC50 [2] [nM]
1 | COc1cc(C2CCN(C(=O)CN)CC2)ccc1Nc1ncc2ccc(-c3ccccc3OC)n2n1 [Example 823, 2-Amino-1-(4-{3-methoxy-4-[7-(2-methoxy-phenyl)-pyrrolo[2,1-f][1,2,4]triazin-2-ylamino]-phenyl}-piperidin-1-yl)-ethanone] | < 100 | 100 to 1000
2 | COc1cc(C2CCN(C(=O)CN)CC2)ccc1Nc1ncc2ccc(-c3ccccc3N(C)S(C)(=O)=O)n2n1 [Example 824, N-[2-(2-{4-[1-(2-Amino-acetyl)-piperidin-4-yl]-2-methoxy-phenylamino}-pyrrolo[2,1-f][1,2,4]triazin-7-yl)-phenyl]-N-methyl-methanesulfonamide] | < 100 | 1000 to 10000
3 | COc1cc(C2CCN(C3COC3)CC2)ccc1Nc1ncc2ccc(-c3ccccc3OC)n2n1 [Example 827, [2-Methoxy-4-(1-oxetan-3-yl-piperidin-4-yl)-phenyl]-[7-(2-methoxy-phenyl)-pyrrolo[2,1-f][1,2,4]triazin-2-yl]-amine] | < 100 | 100 to 1000
4 | COc1cc(C2CCN(C3COC3)CC2)ccc1Nc1ncc2ccc(-c3ccccc3N(C)S(C)(=O)=O)n2n1 [Example 828, N-(2-{2-[2-Methoxy-4-(1-oxetan-3-yl-piperidin-4-yl)-phenylamino]-pyrrolo[2,1-f][1,2,4]triazin-7-yl}-phenyl)-N-methyl-methanesulfonamide] | < 100 | 1000 to 10000
5 | COc1cc2c(cc1Nc1ncc3ccc(-c4ccccc4OC)n3n1)CN(C1COC1)C2 [Example 850, (6-Methoxy-2-oxetan-3-yl-2,3-dihydro-1H-isoindol-5-yl)-[7-(2-methoxy-phenyl)-pyrrolo[2,1-f][1,2,4]triazin-2-yl]-amine] | < 100 | < 100
6 | COc1ccccc1-c1ccc2cnc(Nc3ccc4c(c3OC)CN(C3COC3)C4)nn12 [Example 851, (4-Methoxy-2-oxetan-3-yl-2,3-dihydro-1H-isoindol-5-yl)-[7-(2-methoxy-phenyl)-pyrrolo[2,1-f][1,2,4]triazin-2-yl]-amine] | 100 to 1000 | 100 to 1000
7 | COc1cc2c(cc1Nc1ncc3ccc(-c4ccccc4OC)n3n1)CN(C1CCN(C)CC1)C2 [Example 852, [6-Methoxy-2-(1-methyl-piperidin-4-yl)-2,3-dihydro-1H-isoindol-5-yl]-[7-(2-methoxy-phenyl)-pyrrolo[2,1-f][1,2,4]triazin-2-yl]-amine] | < 100 | < 100
8 | COc1ccccc1-c1ccc2cnc(Nc3ccc4c(c3OC)CN(C3CCN(C)CC3)C4)nn12 [Example 853, [4-Methoxy-2-(1-methyl-piperidin-4-yl)-2,3-dihydro-1H-isoindol-5-yl]-[7-(2-methoxy-phenyl)-pyrrolo[2,1-f][1,2,4]triazin-2-yl]-amine] | < 100 | 100 to 1000
9 | COc1cc(C2CCN(CC(N)=O)CC2)ccc1Nc1ncc2ccc(-c3ccccc3-n3cccn3)n2n1 [Example 854, 2-(4-{3-Methoxy-4-[7-(2-pyrazol-1-yl-phenyl)-pyrrolo[2,1-f][1,2,4]triazin-2-ylamino]-phenyl}-piperidin-1-yl)-acetamide] | < 100 | > 10000
10 | COc1cc(C2CCN(CC(N)=O)CC2)ccc1Nc1ncc2ccc(-c3ccncc3OC)n2n1 [Example 857, 2-(4-{3-Methoxy-4-[7-(3-methoxy-pyridin-4-yl)-pyrrolo[2,1-f][1,2,4]triazin-2-ylamino]-phenyl}-piperidin-1-yl)-acetamide] | < 100 | 100 to 1000
11 | COc1cc2c(cc1Nc1ncc3ccc(-c4ccccc4OC)n3n1)CN(CC(N)=O)C2 [Example 864, 2-{5-Methoxy-6-[7-(2-methoxy-phenyl)-pyrrolo[2,1-f][1,2,4]triazin-2-ylamino]-1,3-dihydro-isoindol-2-yl}-acetamide] | < 100 | < 100
12 | COc1cc(C2CCN(CC(C)(C)O)CC2)ccc1Nc1ncc2ccc(-c3ccccc3OC)n2n1 [Example 865, 1-(4-{3-Methoxy-4-[7-(2-methoxy-phenyl)-pyrrolo[2,1-f][1,2,4]triazin-2-ylamino]-phenyl}-piperidin-1-yl)-2-methyl-propan-2-ol] | < 100 | 100 to 1000
13 | COc1cc(C2CCN(CC(C)(C)O)CC2)ccc1Nc1ncc2ccc(-c3ccccc3N(C)S(C)(=O)=O)n2n1 [Example 866, N-[2-(2-{4-[1-(2-Hydroxy-2-methyl-propyl)-piperidin-4-yl]-2-methoxy-phenylamino}-pyrrolo[2,1-f][1,2,4]triazin-7-yl)-phenyl]-N-methyl-methanesulfonamide] | < 100 | 100 to 1000
14 | CNC(=O)CN1CCC(c2ccc(Nc3ncc4ccc(-c5ccccc5OC)n4n3)c(OC)c2)CC1 [Example 867, 2-(4-{3-Methoxy-4-[7-(2-methoxy-phenyl)-pyrrolo[2,1-f][1,2,4]triazin-2-ylamino]-phenyl}-piperidin-1-yl)-N-methyl-acetamide] | < 100 | 100 to 1000
15 | COc1cc(C2CCN(Cc3ncc[nH]3)CC2)ccc1Nc1ncc2ccc(-c3ccccc3OC)n2n1 [Example 868, {4-[1-(1H-Imidazol-2-ylmethyl)-piperidin-4-yl]-2-methoxy-phenyl}-[7-(2-methoxy-phenyl)-pyrrolo[2,1-f][1,2,4]triazin-2-yl]-amine] | < 100 | 100 to 1000
16 | COc1cc2c(cc1Nc1ncc3ccc(-c4ccccc4N(C)S(C)(=O)=O)n3n1)CN(CC(N)=O)C2 [Example 869, 2-(5-{7-[2-(Methanesulfonyl-methyl-amino)-phenyl]-pyrrolo[2,1-f][1,2,4]triazin-2-ylamino}-6-methoxy-1,3-dihydro-isoindol-2-yl)-acetamide] | < 100 | 100 to 1000
17 | CNC(=O)CN1CCC(c2ccc(Nc3ncc4ccc(-c5ccccc5N(C)S(C)(=O)=O)n4n3)c(OC)c2)CC1 [Example 870, 2-[4-(4-{7-[2-(Methanesulfonyl-methyl-amino)-phenyl]-pyrrolo[2,1-f][1,2,4]triazin-2-ylamino}-3-methoxy-phenyl)-piperidin-1-yl]-N-methyl-acetamide] | < 100 | 100 to 1000
18 | CCN(c1ccccc1-c1ccc2cnc(Nc3ccc(C4CCN(C[C@H](O)CO)CC4)cc3OC)nn12)S(C)(=O)=O [Example 872, N-[2-(2-{4-[1-((S)-2,3-Dihydroxy-propyl)-piperidin-4-yl]-2-methoxy-phenylamino}-pyrrolo[2,1-f][1,2,4]triazin-7-yl)-phenyl]-N-ethyl-methanesulfonamide] | < 100 | 100 to 1000
19 | CCN(c1ccccc1-c1ccc2cnc(Nc3ccc(C4CCN(C[C@@H](C)O)CC4)cc3OC)nn12)S(C)(=O)=O [Example 873, N-Ethyl-N-[2-(2-{4-[1-((R)-2-hydroxy-propyl)-piperidin-4-yl]-2-methoxy-phenylamino}-pyrrolo[2,1-f][1,2,4]triazin-7-yl)-phenyl]-methanesulfonamide] | < 100 | 100 to 1000
20 | COc1cc2c(cc1Nc1ncc3ccc(-c4ccccc4OC)n3n1)CN(C(=O)OC(C)(C)C)C2 [Example 874, 5-Methoxy-6-[7-(2-methoxy-phenyl)-pyrrolo[2,1-f][1,2,4]triazin-2-ylamino]-1,3-dihydro-isoindole-2-carboxylic acid tert-butyl ester] | 1000 to 10000 | 1000 to 10000
21 | COc1cc2c(cc1Nc1ncc3ccc(-c4ccccc4N(C)S(C)(=O)=O)n3n1)CN(C(=O)OC(C)(C)C)C2 [Example 875, 5-{7-[2-(Methanesulfonyl-methyl-amino)-phenyl]-pyrrolo[2,1-f][1,2,4]triazin-2-ylamino}-6-methoxy-1,3-dihydro-isoindole-2-carboxylic acid tert-butyl ester] | 1000 to 10000 | > 10000
22 | COc1cc2c(cc1Nc1ncc3ccc(-c4ccccc4N(C)S(C)(=O)=O)n3n1)CN(C(C)C)C2 [Example 876, N-{2-[2-(2-Isopropyl-6-methoxy-2,3-dihydro-1H-isoindol-5-ylamino)-pyrrolo[2,1-f][1,2,4]triazin-7-yl]-phenyl}-N-methyl-methanesulfonamide] | < 100 | 100 to 1000
23 | COc1cc2c(cc1Nc1ncc3ccc(-c4ccccc4OC)n3n1)CN(C(C)C)C2 [Example 877, (2-Isopropyl-6-methoxy-2,3-dihydro-1H-isoindol-5-yl)-[7-(2-methoxy-phenyl)-pyrrolo[2,1-f][1,2,4]triazin-2-yl]-amine] | < 100 | < 100
24 | COc1cc2c(cc1Nc1ncc3ccc(-c4ccccc4OC)n3n1)CN(C(=O)CN)C2 [Example 878, 2-Amino-1-{5-methoxy-6-[7-(2-methoxy-phenyl)-pyrrolo[2,1-f][1,2,4]triazin-2-ylamino]-1,3-dihydro-isoindol-2-yl}-ethanone] | < 100 | < 100
25 | COc1cc2c(cc1Nc1ncc3ccc(-c4ccccc4N(C)S(C)(=O)=O)n3n1)CN(C(=O)CN)C2 [Example 879, N-(2-{2-[2-(2-Amino-acetyl)-6-methoxy-2,3-dihydro-1H-isoindol-5-ylamino]-pyrrolo[2,1-f][1,2,4]triazin-7-yl}-phenyl)-N-methyl-methanesulfonamide] | < 100 | 100 to 1000
26 | CC(=O)Nc1cccc(Nc2ncc3ccc(-c4cccc(NC(=O)C(C)(C)C)c4)n3n2)c1 [Example 881, N-{3-[2-(3-Acetylamino-phenylamino)-pyrrolo[2,1-f][1,2,4]triazin-7-yl]-phenyl}-2,2-dimethyl-propionamide] | 1000 to 10000 | < 100

Reference: patent US8471005B2 (Cephalon, Inc., priority 2008, dated 2013)
